Assay results: BindingDB's records for doi:10.3109/14756366.2011.629198 (Dumlupinar University, 2012)
Structures can show the parent of a compound that is named as a salt.

Key:
Assay in all cases: CA Inhibition Assay
Conditions in all cases: pH 7.4
[1] = molecular target: Carbonic anhydrase 1 (Homo sapiens, UniProt P00915)
[2] = molecular target: Carbonic anhydrase 4 (Homo sapiens, UniProt P22748)
[3] = molecular target: Carbonic anhydrase 2 (Homo sapiens, UniProt P00918)
[4] = molecular target: Carbonic anhydrase 6 (Homo sapiens, UniProt P23280)
Carbonic anhydrase 6, sequence (P23280 whole entry): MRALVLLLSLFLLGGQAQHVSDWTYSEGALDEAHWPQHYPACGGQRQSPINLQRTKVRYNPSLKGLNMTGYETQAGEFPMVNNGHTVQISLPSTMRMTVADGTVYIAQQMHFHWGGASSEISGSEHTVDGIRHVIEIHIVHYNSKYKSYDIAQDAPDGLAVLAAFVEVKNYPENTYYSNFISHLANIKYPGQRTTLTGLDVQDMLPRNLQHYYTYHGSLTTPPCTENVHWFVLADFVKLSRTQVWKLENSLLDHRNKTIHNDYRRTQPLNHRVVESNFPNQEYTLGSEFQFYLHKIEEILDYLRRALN

Carbonic anhydrase 4, sequence (P22748 whole entry): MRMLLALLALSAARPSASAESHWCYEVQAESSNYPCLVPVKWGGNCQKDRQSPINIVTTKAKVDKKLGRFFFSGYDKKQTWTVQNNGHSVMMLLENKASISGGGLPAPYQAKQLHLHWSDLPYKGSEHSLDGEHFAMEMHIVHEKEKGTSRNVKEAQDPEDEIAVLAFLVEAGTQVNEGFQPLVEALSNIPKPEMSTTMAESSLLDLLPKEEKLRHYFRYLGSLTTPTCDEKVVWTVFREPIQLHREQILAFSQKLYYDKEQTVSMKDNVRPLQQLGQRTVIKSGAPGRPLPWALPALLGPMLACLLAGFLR
Carbonic anhydrase 1, sequence (P00915 whole entry): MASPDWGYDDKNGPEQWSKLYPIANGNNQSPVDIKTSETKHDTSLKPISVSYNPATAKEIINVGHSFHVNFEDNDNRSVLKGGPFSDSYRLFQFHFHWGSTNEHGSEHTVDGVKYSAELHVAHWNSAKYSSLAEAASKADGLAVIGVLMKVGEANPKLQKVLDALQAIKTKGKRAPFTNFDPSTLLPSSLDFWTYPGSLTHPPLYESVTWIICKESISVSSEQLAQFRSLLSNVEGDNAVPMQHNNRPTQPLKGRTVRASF

| Compound | Ki [1] [µM] | Ki [2] [µM] | Ki [3] [µM] | Ki [4] [µM] |
| --- | --- | --- | --- | --- |
| O[C@@H]1C2C[C@H](O)C1c1ccccc12 (stereo partly drawn) [9(R(S))-Hydroxy-1,2,3,4-tetrahydro-1,4-methanonaphthalen-2(R(S))-diol (9)] | 142 | 234 | 23.7 | 278 |
| O=S(=O)(O)O[C@H]1CC2c3ccccc3C1[C@@H]2O (stereo partly drawn) [9(R(S))-Hydroxy-1,2,3,4-tetrahydro-1,4-methanonaphthalen-2(R(S))-yl sulfate (8)] | 32.7 | 199 | 10.4 | 221 |
| O[C@@H]1CCCC[C@H]1O [(1R,2R)-trans-1,2-cyclohexanediol] | 135 | 18.8 | 4.68 | 76.2 |
| O=S(=O)(O)O[C@@H]1CC=CC[C@H]1O [trans-(1R(S),6R(S))-6-Hydroxycyclohex-3-enyl hydrogen sulfate (4)] | 41.3 | 13.7 | 2.13 | 93.1 |
| O=S(=O)(O)O[C@@H]1CC/C=C\CC[C@H]1O [trans-(1R(S),8R(S),Z)-8-Hydroxycyclooct-4-enyl hydrogen sulfate (6)] | 77.2 | 16.3 | 5.41 | 123 |
| O[C@@H]1Cc2ccccc2C[C@H]1O [trans-(2R(S),3R(S))-1,2,3,4-Tetrahydronaphthalene-2,3-diol (11)] | 423 | 77.9 | 32.4 | 127 |
